System: HeLa cervical cancer cells
Test: Adriamycin or UVC-triggered apoptosis: cell cycle kinetic analysis (PI, FACS)
Format: cell-based, human
Method: To examine whether a drug or UV light triggers apoptosis of the cells transfected with HCCS-1 gene, the cell cycle kinetic analysis was conducted as described by Hedley, D. W.(in Flow Cytometry, DNA Analysis from Paraffin-embedded Blocks (eds Darzynkiewicz, Z. & Crissman, H. A.) 139 (Academic Press, San Diego, 1990)).
HeLa cells transfected with HCCS-1 gene obtained in Step 2 of Example 4 and parental wild-type cells were cultured until mid-log phase and incubated in Waymouth MB 752/1 medium containing 0.5% bovine calf serum for 36 hours to arrest the cell growth at G0/G1 phase. The cells were treated with adriamycin (0.1 and 2 μg/ml, respectively) or UVC (50 J/m^2) and then the cells were cultured in Waymouth MB 752/1 medium containing 0.5% bovine calf to resume the cell growth. After 24 hours, HeLa cells were harvested, treated with trypsin, and fixed in 70% ethanol.
50 μg/ml of PI staining solution (Sigma) and 100 units/ml of RNase A (Boerhinger Mannheim) were added to 2×10^6 of the fixed cells. After incubation for 1 hour, the cellular DNA content was determined by fluorescence analysis at 488 nm using a FACS Caliber (Becton Dickinson). A minimum of 1×10^4 cells per sample was analyzed with Modfit 5.2 software.

COc1cccc2c1C(=O)c1c(O)c3c(c(O)c1C2=O)C[C@@](O)(C(=O)CO)C[C@@H]3O[C@H]1C[C@H](N)[C@H](O)[C@H](C)O1 [adriamycin]
differences in cell populations with respect to cell cycle progression between wild-type and HCCS-1-transfected HeLa cells (adriamycin 0.1 and 2 μg/ml, 24 hours): no significant differences | cells in apoptotic sub G0/G1-phase (wild-type HeLa cells, 24 hours after adriamycin 0.1 and 2 μg/ml): few cells remained in apoptotic sub G0/G1-phase
